# Measured values as given in US20250255841A1, “METHODS FOR TREATING CYTOKINE STORM ASSOCIATED WITH ACINETOBACTER BAUMANNII INFECTIONS” (City University of Hong Kong, priority 2024, published 2025).
# What was measured:
# ATCC17978-infected mice = assay: Mouse sepsis infection model with immunosuppressive drug treatment (survival, body weight, spleen weight); assay type: in vivo, C57BL/6 mice; details: for survival rate of ATCC17978-infected mice: intraperitoneal drug
# Protocol: (§1) The mouse infection model was employed to detect the immune response induced by Ab in vivo. Mice of the same sex were randomly divided into several groups (5 animals per group) and then infected by 7.5×10^7 CFU of Ab test strain by intraperitoneal administration. The body weight of all mice was recorded before infection and at 12 hours post-infection. Survival of the test animals was determined by recording the mortality rate during the 120-hour experiment. At 12 hpi, the mice were sacrificed, and the organs were collected and homogenized for bacterial load measurement and analysis by flow cytometry, RNAseq, scRNAseq and qRT-PCR assay. The serum of the mice was collected for ELISA detection. Animal experiments were conducted at least twice to assess the consistency of the data.
# To test the effect of NSAIDs treatment, the mice were administered intraperitoneal injections of 50 mg/kg NPXS and 100 mg/kg ASA 1 h before ATCC 17978 infection; a group of mice that served as control received equivalent volumes of PBS. The survival rate, health status, and weight of the test animals were recorded during the next 120 hours.
# RAW264.7 cells = assay: Inhibitor treatment in RAW264.7 infected with ATCC 17978, flow cytometry of CD86/CD206; assay type: cell-based, mouse; details: RAW264.7 pretreated 1 h, Ab MOI=5 for 6 h; compared to cells not treated with the inhibitors
# Protocol: RAW264.7 cells were pre-treated for 1 h with the culture medium, C29 (100 μM)^22, TJ-M2010-5 (20 μM)^23 and JSH-23 (30 μM)^24 (MCE, NJ, USA) respectively, and then stimulated with Ab (MOI=5) for 6 h in the presence of the culture medium, C29, TJ-M2010-5 or JSH-23. Cell supernatants were collected for subsequent cytokine measurement. RAW264.7 cells were incubated with fluorescently labeled antibodies against mouse F4/80, CD206, and CD86 for flow cytometric analysis, following washes three times with PBS and resuspension in PBS containing 2.5% FBS.
# [1] = system: CD11b+F4/80+ macrophages in the lungs of Ab-infected mice
# Protocol: as §1
# [2] = system: serum cytokine production (TNF-α, IL-6 and IL-1b); details: Ab-infected mice, ELISA
# Protocol: as §1
# Blood was collected from the test mice by orbital bleeding and clotted at RT for 1 h. Blood was subsequently subjected to centrifugation at 10,000 g for 25 min at 4° C. Serum was divided into tubes and stored immediately at −80° C. until cytokine analysis.
# The enzyme-linked immunosorbent assay (ELISA) was used to perform cytokine analysis in mouse serum and cell supernatants. Mouse serum was extracted as described above. Pre-treated macrophage cell supernatants were harvested and centrifuged to remove impurities. The levels of IL1β, IL6, and TNF-α were measured by using the IL-1 beta, IL-6 and TNF alpha Mouse Uncoated ELISA Kit (Thermo Fisher Scientific) according to the manufacturer's protocols, respectively.
# [3] = system: pro-inflammatory, COX and TLR2/Myd88/NF-κB signaling pathway-related genes
# Protocol: as §1
# Total RNA was extracted from the homogenized lung samples or RAW264.7 cells (ATCC, CA, USA) upon Ab infection, utilizing the TRIzol™ method (Thermo Fisher Scientific, MA, USA). Turbo DNA-free™ Kit (Invitrogen, CA, USA) was employed for removal of DNA contaminants. 1 μg purified mRNA was reverse transcribed into cDNA using SuperScript™ III First-Strand Synthesis SuperMix Kit (Invitrogen), with a 1:10 dilution for subsequent qRT-PCR analysis. The qRT-PCR was then performed on an ABI QuantStudio 7 Flex Real-Time PCR System (Applied Biosystems, CA, USA) by the PowerUP SYBR Green master mix (Applied Biosystems). The target gene transcription levels were quantified by the comparative Ct method and normalized to the expression level of glyceraldehyde-3-phosphate dehydrogenase (GADPH).
# Total RNA extracted from lung samples was sequenced by Novogene Technology (Hong Kong SAR, China). Bioanalyzer 2100 system was used to measure RNA integrity (Agilent Technologies, CA, USA); the NEBNextUltra RNA Library Prep Kit (NEB, CA, USA) was employed to construct the cDNA libraries for Illumina sequencing. The index-coded samples clustering was carried out on a cBot Cluster Generation System by the TruSeq PE Cluster Kit v3-cBot-HS (Illumia, CA, Illumia). The libraries were sequenced on the Illumina Novaseq platform with paired-end 150 bp reads. HISAT2 was used for sequencing reads alignment. Fragments per gene were counted based on exon regions with FeatureCounts v.1.6.243. Differential mRNA level analysis was carried on by the DESeq2 R package. Unigenes with P.adjust<0.05 and |Log2Fold Change|>1 could be described as differentially expressed genes. Gene Enrichment Analysis was conducted for gene ontology enrichment analysis.
# [4] = RNA-seq, ATCC 17978-infected mice after NPXS treatment, stated as suppressed
smiles,measurement,setting,value
"CC(=O)Oc1ccccc1C(=O)O [ASA, acetylsalicylic acid]",survival rate of ATCC17978-infected mice,ATCC17978-infected mice; at 24 h,60%
same,anti-inflammatory potency recorded during Ab infection,ATCC17978-infected mice; comparison with naproxen,inferior to that of naproxen
"Cn1cnc([N+](=O)[O-])c1Sc1ncnc2nc[nH]c12 [AzA, azathioprine]",survival rate of ATCC17978-infected mice,ATCC17978-infected mice; at 36 h,40%
"C[C@@H]1C[C@H]2[C@@H]3CCC4=CC(=O)C=C[C@]4(C)[C@@]3(F)[C@@H](O)C[C@]2(C)[C@@]1(O)C(=O)CO [DXMS, dexamethasone]",survival rate of ATCC17978-infected mice,ATCC17978-infected mice; at 48 h,40%
Cc1ccc(NCCCc2ccccc2)c(N)c1 [JSH-23],CD86 MFI levels,RAW264.7 cells,decrease
same,CD206 MFI levels,RAW264.7 cells,no difference
"COc1ccc2cc([C@H](C)C(=O)O)ccc2c1 [NPXS, (+)-(S)-2-(6-methoxynaphthalen-2-yl) propanoic acid]",extent of body weight loss,"ATCC17978-infected mice; 12 hpi, on average, infected untreated 6.7%",3.6%
same,splenomegaly (percentage of spleen weight),"ATCC17978-infected mice; on average, infected untreated 0.48%",0.38%
same,infected mice protected from death,"ATCC17978-infected mice; within 120 h, 50 mg/kg i.p. 1 h before infection",100%
same,CD86 MFI levels (M1 polarization),[1]; F4/80+ macrophages in the lungs of Ab-infected mice,effectively attenuated
same,infiltration of CD11b+F4/80+ macrophages,[1]; lungs of Ab-infected mice,did not result in decrease
same,reduction of serum IL-1b production,[2],more than 50 fold
same,reduction of serum IL-6 production,[2],more than 50 fold
same,reduction of serum TNF-α production,[2],more than 50 fold
same,relative expression of TLR2/Myd88/NF-κB signaling pathway-related genes,[3]; ATCC 17978-infected mice after NPXS treatment,further reduction
same,transcript levels of most pro-inflammatory genes,"[3]; Ab-infected mice, lungs",significantly lower
same,"expression of COX1 gene, Log2FC",[3]; [4],0.4194
same,"expression of COX2 gene, Log2FC",[3]; [4],0.2429
O=C(CCN1CCN(Cc2ccccc2)CC1)Nc1nc(-c2ccccc2)cs1 [TJ-M2010-5],CD86 MFI levels,RAW264.7 cells,decrease
same,CD206 MFI levels,RAW264.7 cells,no difference
